For assay [1], the system named is Escherichia coli. The experiment in a line: Molecular phenotypic antimicrobial susceptibility test (extraction or DNA purification prior to PCR). Type of assay: cell-based. As to the method:
(§1) Detection of Molecular Phenotypic Antimicrobial Susceptibility. Disclosed herein are the methods for the detection of phenotypic antimicrobial susceptibility via molecular methods. The present invention describes how a specimen 100 with a known microbial load is incubated and then exposed to a panel of antimicrobial agents to determine sensitivity (prevention of growth) or resistance (allowance of growth) to the specific antimicrobial agents tested utilizing molecular methods.
(§2) Sample Collection. Specimens 100 are collected from patients using sterile collection processes that are employed in routine clinical care. Specimens are transported to the testing facility in boric acid preservative.
(§3) Preparation of the Specimens for Testing. […] The process for pathogen isolation includes steps of harvesting the pathogen (e.g., via centrifugation), isolating pathogen DNA via a DNA isolation and/or purification kit, and performing PCR on the pathogen DNA via PCR components (e.g., primers, enzymes, buffers) as would be known to the skilled artisan. […] This aliquot is used for antimicrobial susceptibility testing if indicated based on the pathogen detection results. […] Specimens 100 with lower pathogen loads could also be utilized in the antibiotic susceptibility phase of testing with or without a longer incubation period.
(§4) Preparation of Antimicrobial Susceptibility Testing Plates. Antimicrobial solutions are prepared at known concentrations. The specific antimicrobials and their concentrations are selected based on the pathogen of interest and the described antimicrobial resistance breakpoints for that specimen pathogen and antimicrobial combination. These antimicrobials have been selected based on those commonly utilized by healthcare providers in routine clinical care for the specific type of suspected infection. The number and types of antimicrobials utilized can be customized based on the infection source, pathogen detected, patient-specific factors such as allergies or other health conditions (e.g., chronic kidney disease or concurrent medication use), or healthcare provider preferences such as antimicrobial availability or cost.
(§5) The antimicrobial solutions are prepared in liquid culture media (such as Muller Hinton Broth) to achieve the desired antimicrobial concentration and are then stored at −80° C. until use. For a given specimen, each antimicrobial is tested at a single or multiple antimicrobial concentration(s) which is its established breakpoints for sensitivity. The antimicrobial solutions are prepared and plated out for each specific pathogen. […] This allows for evaluation of pathogen load when no antimicrobial is present.
(§6) Specimen Exposure to Antimicrobial Agents. The 1 mL aliquot of the specimen 100 previously mixed with culture media and incubated is obtained. Using optical density measurements as a guide, the specimen 100 is diluted to 0.5 McFarland.
(§7) Antimicrobial exposure plates are typically placed into an incubator for 12-16 hours.
(§8) Nucleic Acid Amplification of Antimicrobial Agent Exposed Pathogens. The antimicrobial exposure plate is removed after the period of incubation. The specimen then undergoes a purification or lysis step. For example, the specimen may undergo a purification step (e.g., magnetic bead-based or other separation protocol to isolate genetic material). In another example, the specimen may undergo a cell lysis step. For example, buffer (e.g., lysis buffer) may be added and incubated in the thermal cycler for preparation for direct PCR. Next, the specimen may undergo a polymerase chain reaction (PCR) testing protocol, whereby a semi-quantitative PCR method is utilized. This may be completed either with or without a specific extraction protocol step. The pathogens can be individually targeted and detected, or a universal genetic sequence can be utilized to detect the antimicrobial susceptibility of the specimen as a whole.

The test system of assay [2] is pathogens of clinical samples. The assay is described as follows: Molecular phenotypic antimicrobial susceptibility test of clinical samples, direct PCR without a separate DNA purification step (Table 6). The format is cell-based. The protocol:
as §1, §2, §3, §4, §5, §6, §7, §8

[3] abbreviates: E. coli, clinical sample of r10-r24.
The mark [4] stands for this setting: E. coli, clinical sample of r10-r24, Ct control avg 12.97.
Where [5] appears, read: E. coli, clinical sample of r158-r172.
Where [6] appears, read: E. coli, clinical sample of r158-r172, Ct control avg 12.894.
Setting [7] is: K. aerogenes, clinical sample of r136-r150.
Setting [8] is: K. aerogenes, clinical sample of r136-r150, Ct control avg 13.854.
[9] abbreviates: K. pneumoniae, clinical sample of r121-r135.
Where [10] appears, read: K. pneumoniae, clinical sample of r121-r135, Ct control avg […].
[11] abbreviates: M. morganii, clinical sample of r55-r69.
The mark [12] stands for this setting: M. morganii, clinical sample of r55-r69, Ct control avg 12.09.
Setting [13] is: M. morganii, clinical sample of r70-r84.
The mark [14] stands for this setting: M. morganii, clinical sample of r70-r84, Ct control avg 11.677.
[15] abbreviates: P. mirabilis, clinical sample of r25-r39.
Setting [16] is: P. mirabilis, clinical sample of r25-r39, Ct control avg 11.801.
Where [17] appears, read: P. mirabilis, clinical sample of r40-r54.
Setting [18] is: P. mirabilis, clinical sample of r40-r54, Ct control avg 10.06.
Setting [19] is: S. aureus, clinical sample of r85-r92.
The mark [20] stands for this setting: S. aureus, clinical sample of r85-r92, Ct control avg 20.309.
[21] abbreviates: E. faecalis, clinical sample of r93-r99.
Setting [22] is: E. faecalis, clinical sample of r93-r99, Ct control avg 22.011.
[23] abbreviates: E. faecalis, clinical sample of r100-r106.
Setting [24] is: E. faecalis, clinical sample of r100-r106, Ct control avg 21.027.
Where [25] appears, read: E. faecalis, clinical sample of r107-r113, Ct control avg 20.529.
[26] abbreviates: E. faecalis, clinical sample of r114-r120.
[27] abbreviates: E. faecalis, clinical sample of r151-r157, Ct control avg 18.551.

Take `CO[C@@]1(NC(=O)Cc2cccs2)C(=O)N2C(C(=O)O)=C(COC(N)=O)CS[C@@H]21` [Cefoxitin]: the “Ct at Sensitive Breakpoint” value in assay [1] (E. coli isolate 4, Ct at control (average) 17.5733) is given as 24.09; in assay [1] (E. coli isolate 5, Ct at control (average) 21.0933), 24.72. Further, the “Molecular Antimicrobial Susceptibility Result” value in assay [1] (E. coli isolate 4, at sensitive breakpoint) was “Sensitive (Antimicrobial wells with pathogen load detected below the control wells (typically >2 cycle thresholds later) may be reported as Sensitive)”; in assay [1] (E. coli isolate 5, at sensitive breakpoint), “Sensitive (Antimicrobial wells with pathogen load detected below the control wells (typically >2 cycle thresholds later) may be reported as Sensitive)”. For the same molecule, the “Molecular Antibiotic Susceptibility Result” value in assay [2] (setting [3]) is recorded as “Sensitive (Antimicrobial wells with pathogen load detected below the control wells (typically >2 cycle thresholds later) may be reported as Sensitive)”; in assay [2] (setting [5]) it was “Sensitive (Antimicrobial wells with pathogen load detected below the control wells (typically >2 cycle thresholds later) may be reported as Sensitive)”; in assay [2] (setting [7]), “Resistant”; in assay [2] (setting [9]), “Sensitive (Antimicrobial wells with pathogen load detected below the control wells (typically >2 cycle thresholds later) may be reported as Sensitive)”; in assay [2] (setting [11]) it was “Sensitive (Antimicrobial wells with pathogen load detected below the control wells (typically >2 cycle thresholds later) may be reported as Sensitive)”; in assay [2] (setting [13]), “Sensitive (Antimicrobial wells with pathogen load detected below the control wells (typically >2 cycle thresholds later) may be reported as Sensitive)”. Also, the “Molecular Antibiotic Susceptibility Result” value in assay [2] (setting [15]) is “Sensitive (Antimicrobial wells with pathogen load detected below the control wells (typically >2 cycle thresholds later) may be reported as Sensitive)”; in assay [2] (setting [17]) it was “Sensitive (Antimicrobial wells with pathogen load detected below the control wells (typically >2 cycle thresholds later) may be reported as Sensitive)”; in assay [2] (setting [19]), “Resistant”. For the same molecule, the Ct was 25.006 in assay [2] (setting [4]); 29.986 in assay [2] (setting [6]); 13.468 in assay [2] (setting [8]); 27.384 in assay [2] (setting [10]); 29.041 in assay [2] (setting [12]); 29.107 in assay [2] (setting [14]). Further, the Ct is on record as 27.055 in assay [2] (setting [16]), 26.904 in assay [2] (setting [18]) and 20.586 in assay [2] (setting [20]).
With `CN(C)[C@@H]1C(O)=C(C(N)=O)C(=O)[C@@]2(O)C(O)=C3C(=O)c4c(O)cccc4[C@@](C)(O)[C@H]3C[C@@H]12` [Tetracycline], the “Molecular Antibiotic Susceptibility Result” value in assay [2] (setting [3]) is “Sensitive (Antimicrobial wells with pathogen load detected below the control wells (typically >2 cycle thresholds later) may be reported as Sensitive)”; in assay [2] (setting [5]), “Sensitive (Antimicrobial wells with pathogen load detected below the control wells (typically >2 cycle thresholds later) may be reported as Sensitive)”; in assay [2] (setting [21]), “Resistant”; in assay [2] (setting [23]), “Resistant”; in assay [2] (setting [26]) it was “Resistant”; in assay [2] (setting [7]) it was “Sensitive (Antimicrobial wells with pathogen load detected below the control wells (typically >2 cycle thresholds later) may be reported as Sensitive)”. Further, the “Molecular Antibiotic Susceptibility Result” value in assay [2] (setting [9]) is reported as “Sensitive (Antimicrobial wells with pathogen load detected below the control wells (typically >2 cycle thresholds later) may be reported as Sensitive)”; in assay [2] (setting [11]), “Resistant”; in assay [2] (setting [13]) it was “Resistant”; in assay [2] (setting [15]) it was “Resistant”; in assay [2] (setting [17]) it was “Resistant”; in assay [2] (setting [19]), “Resistant”. For the same molecule, the Ct in assay [2] (setting [4]) is 26.521; in assay [2] (setting [6]), 30.717; in assay [2] (setting [22]) it was 21.199; in assay [2] (setting [24]), 20.684; in assay [2] (setting [25]), 28.789; in assay [2] (E. faecalis, clinical sample of r114-r120, Ct control avg 20.909), 21.446. Besides, the Ct in assay [2] (setting [27]) turned out to be 21.132; in assay [2] (setting [8]), 30.787; in assay [2] (setting [10]), 27.163; in assay [2] (setting [12]), 9.923; in assay [2] (setting [14]), 12.206; in assay [2] (setting [16]) it was 10.301. Further, the Ct in assay [2] (setting [18]) was determined as 11.498; in assay [2] (setting [20]) it was 22.653.
For the molecule `CN[C@H](CC(C)C)C(=O)N[C@H]1C(=O)N[C@@H](CC(N)=O)C(=O)N[C@H]2C(=O)N[C@H]3C(=O)N[C@H](C(=O)N[C@H](C(=O)O)c4cc(O)cc(O)c4-c4cc3ccc4O)[C@H](O)c3ccc(c(Cl)c3)Oc3cc2cc(c3O[C@@H]2O[C@H](CO)[C@@H](O)[C@H](O)[C@H]2O[C@H]2C[C@](C)(N)[C@H](O)[C@H](C)O2)Oc2ccc(cc2Cl)[C@H]1O` [Vancomycin], the “Molecular Antibiotic Susceptibility Result” value in assay [2] (setting [21]) is “Sensitive (Antimicrobial wells with pathogen load detected below the control wells (typically >2 cycle thresholds later) may be reported as Sensitive)”; in assay [2] (setting [23]), “sensitive”; in assay [2] (E. faecalis, clinical sample of r107-r113), “sensitive”; in assay [2] (setting [26]), “Sensitive (Antimicrobial wells with pathogen load detected below the control wells (typically >2 cycle thresholds later) may be reported as Sensitive)”; in assay [2] (E. faecalis, clinical sample of r151-r157), “Sensitive (Antimicrobial wells with pathogen load detected below the control wells (typically >2 cycle thresholds later) may be reported as Sensitive)”; in assay [2] (setting [19]) it was “Resistant”. In addition, the Ct came out at 30.062 in assay [2] (setting [22]); 35.563 in assay [2] (setting [24]); 29.81 in assay [2] (setting [25]); 35.428 in assay [2] (setting [27]); 21.258 in assay [2] (setting [20]).

Values taken from patent US20250290117A1, “MOLECULAR PHENOTYPIC ANTIMICROBIAL SUSCEPTIBILITY TESTING” (priority 2024, published 2025).
